Experimental data as given in patent publication US20250171430A1, “PYRAZOLYL COMPOUNDS AS KV7 CHANNEL ACTIVATORS” (Biohaven Therapeutics Ltd., priority 2022, published 2025).

target: T1, Kv7.2/7.3 (Homo sapiens, UniProt O43525+O43526); test: Kv7.2/7.3 Activation Assay (Thallium Flux Assay); format: cell-based; conditions: hKV7.2/7.3 cell line; test compound at single concentration of 10 μM; fluorescence at 90 sec normalized to positive control (retigabine, 30 μM)
T1 construct: Kv7.2 tetracycline-induced, Kv7.3 constitutive
In short: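 Single-point activity at 10 μM (0.1% DMSO, HEPES-buffered saline, pH 7.4) was scored from fluorescence at 90 s relative to 30 μM retigabine. Categories were none <0.15, moderate 0.15-0.7 and high >0.7. Thallium influx after stimulus addition was followed with FluxOR II Green dye in hKv7.2/7.3 cells, Kv7.2 expressed under overnight tetracycline (10 ng/mL) induction.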

Row | Structure (SMILES) | Kv7.2/7.3 Activity
1 | Cn1nc(NC(=O)C2(C)CC(F)(F)C2)c(C2CCC2)c1-c1ccc(Cl)s1 [Compound 210, N-(5-(5-chlorothiophen-2-yl)-4-cyclobutyl-1-methyl-1H-pyrazol-3-yl)-3,3-difluoro-1-methylcyclobutane-1-carboxamide] | ++ (“++” High Activity ≥ 0.7)
2 | Cn1nc(NC(=O)CC2CC(F)(F)C2)c(C2CCC2)c1-c1ccc(F)c(F)c1 [Compound 217, N-(4-cyclobutyl-5-(3,4-difluorophenyl)-1-methyl-1H-pyrazol-3-yl)-2-(3,3-difluorocyclobutyl)acetamide] | ++ (“++” High Activity ≥ 0.7)
3 | Cn1nc(NC(=O)C(F)(F)C(C)(O)c2ccccc2)c(C2CCC2)c1-c1ccc(F)cc1 (stereo not drawn) [Compound 117, N-(4-cyclobutyl-5-(4-fluorophenyl)-1-methyl-1H-pyrazol-3-yl)-2,2-difluoro-3-hydroxy-3-phenylbutanamide] | ++ (“++” High Activity ≥ 0.7)
4 | Cn1nc(NC(=O)CC2(C(F)(F)F)CC2)c(C2CCC2)c1-c1cnc(C(F)(F)F)s1 [Compound 50, N-(4-cyclobutyl-1-methyl-5-(2-(trifluoromethyl)thiazol-5-yl)-1H-pyrazol-3-yl)-2-(1-(trifluoromethyl)cyclopropyl)acetamide] | − (“−” No Activity < 0.15)
5 | Cn1nc(NC(=O)OCC(F)F)c(C2CCC2)c1C1COC1 [Compound 280, 2,2-difluoro-213-ethyl (4-cyclobutyl-1-methyl-5-(oxetan-3-yl)-1H-pyrazol-3-yl)carbamate] | − (“−” No Activity < 0.15)
6 | COc1ccc(-c2c(C3CCC3)c(NC(=O)C[C@H]3CC(F)(F)C3(F)F)nn2C)cc1 [Compound 57, (S)-N-(4-cyclobutyl-5-(4-methoxyphenyl)-1-methyl-1H-pyrazol-3-yl)-2-(2,2,3,3-tetrafluorocyclobutyl)acetamide] | ++ (“++” High Activity ≥ 0.7)
7 | Cn1nc(NC(=O)C2COC2)c(C2CCC2)c1-c1cc(F)c(F)c(F)c1 [Compound 275, N-(4-cyclobutyl-1-methyl-5-(3,4,5-trifluorophenyl)-1H-pyrazol-3-yl)oxetane-3-carboxamide] | − (“−” No Activity < 0.15)
8 | Cn1nc(NC(=O)CC(C)(O)c2ccc(F)cc2F)c(C2CCC2)c1-c1ccc(OC(F)(F)F)cc1 (stereo not drawn) [Compound 176, N-(4-cyclobutyl-1-methyl-5-(4-(trifluoromethoxy)phenyl)-1H-pyrazol-3-yl)-3-(2,4-difluorophenyl)-3-hydroxybutanamide] | ++ (“++” High Activity ≥ 0.7)
9 | Cn1nc(NC(=O)C[C@@H]2CC(F)(F)C2(F)F)c(C2CCC2)c1C1CCCCC1 [Compound 66, (R)-N-(4-cyclobutyl-5-cyclohexyl-1-methyl-1H-pyrazol-3-yl)-2-(2,2,3,3-tetrafluorocyclobutyl)acetamide] | ++ (“++” High Activity ≥ 0.7)
10 | Cn1nc(NC(=O)C2COC2)c(C2CCC2)c1-c1ccc(Cl)s1 [Compound 276, N-(5-(5-chlorothiophen-2-yl)-4-cyclobutyl-1-methyl-1H-pyrazol-3-yl)oxetane-3-carboxamide] | + (“+” Moderate Activity 0.15-0.7)
11 | Cn1nc(NC(=O)OC2CC(F)(F)C2)c(C2CCC2)c1-c1ccc(Cl)s1 [Compound 226, 3,3-difluorocyclobutyl (5-(5-chlorothiophen-2-yl)-4-cyclobutyl-1-methyl-1H-pyrazol-3-yl)carbamate] | ++ (“++” High Activity ≥ 0.7)
12 | Cn1nc(NC(=O)CC2(C(F)(F)F)CCC2)c(C2CCC2)c1C1(C(F)(F)F)CCC1 [Compound 88, N-(4-cyclobutyl-1-methyl-5-(1-(trifluoromethyl)cyclobutyl)-1H-pyrazol-3-yl)-2-(1-(trifluoromethyl)cyclobutyl)acetamide] | ++ (“++” High Activity ≥ 0.7)
13 | CC(F)(F)C1(C(=O)Nc2nn(CC(F)(F)F)c(-c3ccc(F)cc3)c2C2CCC2)CC1 [Compound 141, N-(4-cyclobutyl-5-(4-fluorophenyl)-1-(2,2,2-trifluoroethyl)-1H-pyrazol-3-yl)-1-(1,1-difluoroethyl)cyclopropane-1-carboxamide] | − (“−” No Activity < 0.15)
14 | Cn1nc(NC(=O)C2CC(F)(F)C2)c(C2CCC2)c1-c1ccc(C(C)(C)O)s1 [Compound 247, N-(4-cyclobutyl-5-(5-(2-hydroxypropan-2-yl)thiophen-2-yl)-1-methyl-1H-pyrazol-3-yl)-3,3-difluorocyclobutane-1-carboxamide] | − (“−” No Activity < 0.15)
15 | Cn1nc(NC(=O)CC2(C(F)(F)F)CCC2)c(C2CCC2)c1-c1ccc(F)cc1 [Compound 83, N-(4-cyclobutyl-5-(4-fluorophenyl)-1-methyl-1H-pyrazol-3-yl)-2-(1-(trifluoromethyl)cyclobutyl)acetamide] | ++ (“++” High Activity ≥ 0.7)
16 | C[C@@H](C(=O)Nc1nn(C)c(-c2ccc(F)cc2)c1C1CCC1)C(C)(C)C [Compound 114, (R)-N-(4-cyclobutyl-5-(4-fluorophenyl)-1-methyl-1H-pyrazol-3-yl)-2,3,3-trimethylbutanamide] | ++ (“++” High Activity ≥ 0.7)
17 | Cn1nc(NC(=O)CC2CC(F)(F)C2)c(C2CCC2)c1-c1ccc(Cl)c(F)c1 [Compound 250, N-(5-(4-chloro-3-fluorophenyl)-4-cyclobutyl-1-methyl-1H-pyrazol-3-yl)-2-(3,3-difluorocyclobutyl)acetamide] | ++ (“++” High Activity ≥ 0.7)
18 | Cn1nc(NC(=O)N[C@@H]2CCC(F)(F)C2)c(C2CCC2)c1-c1ccc(F)cc1 [Compound 238, (R)-1-(4-cyclobutyl-5-(4-fluorophenyl)-1-methyl-1H-pyrazol-3-yl)-3-(3,3-difluorocyclopentyl)urea] | + (“+” Moderate Activity 0.15-0.7)
19 | O=C(CC1(C(F)(F)F)CC1)Nc1nn(CCO)c(Cc2ccccc2)c1C1CCC1 [Compound 76, N-(5-benzyl-4-cyclobutyl-1-(2-hydroxyethyl)-1H-pyrazol-3-yl)-2-(1-(trifluoromethyl)cyclopropyl)acetamide] | ++ (“++” High Activity ≥ 0.7)
20 | Cn1nc(NC(=O)[C@@H]2CC2(F)F)c(C2CCC2)c1-c1cccc(F)c1 [Compound 167, (S)-N-(4-cyclobutyl-5-(3-fluorophenyl)-1-methyl-1H-pyrazol-3-yl)-2,2-difluorocyclopropane-1-carboxamide] | + (“+” Moderate Activity 0.15-0.7)
21 | Cn1nc(NC(=O)OC2CCC2)c(C2CCC2)c1C1CC(F)(F)C1 [Compound 295, cyclobutyl (4-cyclobutyl-5-(3,3-difluorocyclobutyl)-1-methyl-1H-pyrazol-3-yl)carbamate] | ++ (“++” High Activity ≥ 0.7)
22 | COCCNC(=O)Nc1nn(C)c(-c2ccc(F)cc2)c1C1CCC1 [Compound 246, 1-(4-cyclobutyl-5-(4-fluorophenyl)-1-methyl-1H-pyrazol-3-yl)-3-(2-methoxyethyl)urea] | − (“−” No Activity < 0.15)
23 | Cn1nc(NC(=O)C2CC(C)(C)C2)c(C2CCC2)c1-c1ccc(F)cc1 [Compound 121, N-(4-cyclobutyl-5-(4-fluorophenyl)-1-methyl-1H-pyrazol-3-yl)-3,3-dimethylcyclobutane-1-carboxamide] | ++ (“++” High Activity ≥ 0.7)
24 | Cn1nc(NC(=O)NCC(F)(F)F)c(C2CCC2)c1C1CC(F)(F)C1 [Compound 293, 1-(4-cyclobutyl-5-(3,3-difluorocyclobutyl)-1-methyl-1H-pyrazol-3-yl)-3-(2,2,2-trifluoroethyl)urea] | ++ (“++” High Activity ≥ 0.7)
25 | Cn1nc(NC(=O)C[C@H]2CC(F)(F)C2(F)F)c(C2CCC2)c1-c1ccc(C(F)(F)F)cn1 [Compound 35, (S)-N-(4-cyclobutyl-1-methyl-5-(5-(trifluoromethyl)pyridin-2-yl)-1H-pyrazol-3-yl)-2-(2,2,3,3-tetrafluorocyclobutyl)acetamide] | + (“+” Moderate Activity 0.15-0.7)
26 | Cc1cccc(-c2c(NC(=O)C3CC(F)(F)C3)nn(C)c2C2CC(F)(F)C2)c1 [Compound 271, N-(5-(3,3-difluorocyclobutyl)-1-methyl-4-(m-tolyl)-1H-pyrazol-3-yl)-3,3-difluorocyclobutane-1-carboxamide] | + (“+” Moderate Activity 0.15-0.7)
27 | Cn1nc(NC(=O)C[C@H]2CC(F)(F)C2(F)F)c(CC(F)(F)F)c1-c1ccccc1 [Compound 38, (S)-N-(1-methyl-5-phenyl-4-(2,2,2-trifluoroethyl)-1H-pyrazol-3-yl)-2-(2,2,3,3-tetrafluorocyclobutyl)acetamide] | ++ (“++” High Activity ≥ 0.7)
28 | Cn1nc(NC(=O)CC(C)(C)C(F)(F)F)c(C2CCC2)c1-c1ccc(F)cc1F [Compound 97, N-(4-cyclobutyl-5-(2,4-difluorophenyl)-1-methyl-1H-pyrazol-3-yl)-4,4,4-trifluoro-3,3-dimethylbutanamide] | ++ (“++” High Activity ≥ 0.7)
29 | Cn1nc(NC(=O)C[C@@H]2CC(F)(F)C2(F)F)c(C2CCC2)c1-c1ccc(S(C)(=O)=O)cc1 [Compound 53, (R)-N-(4-cyclobutyl-1-methyl-5-(4-(methylsulfonyl)phenyl)-1H-pyrazol-3-yl)-2-(2,2,3,3-tetrafluorocyclobutyl)acetamide] | − (“−” No Activity < 0.15)
30 | C[C@@H](C(=O)Nc1nn(C)c(-c2ccc(Cl)s2)c1C1CCC1)C1(C(F)(F)F)CC1 [Compound 234, (R)-N-(5-(5-chlorothiophen-2-yl)-4-cyclobutyl-1-methyl-1H-pyrazol-3-yl)-2-(1-(trifluoromethyl)cyclopropyl)propanamide] | ++ (“++” High Activity ≥ 0.7)
